Key:
[1] = tested on: mutant Paracoccus sp. strain Y-1071; assay: Glutamate vs yeast extract supplementation, test tube culture (defined medium), carotenoid by HPLC; format: cell-based
Method: (§1) In the examples, carotenoids were quantified by high performance liquid chromatography (HPLC) as follows.
(§2) Two columns of Wakosil-II 5 SIL-100 (φ4.6×250 mm) (Wako Pure Chemical Industries, Ltd., Japan) were connected to each other for use as a column. Elution was performed by flowing an n-hexane-tetrahydrofuran-methanol mixed solution (40:20:1), which was a mobile phase, at a flow rate of 1.0 mL/minute at a constant temperature around room temperature. The measurement was performed as follows. Samples were each dissolved in tetrahydrofuran and then diluted 100-fold with the mobile phase. Each dilution was injected in a volume of 20 μL. The column eluate was detected at a wavelength of 470 nm. As a reference for quantification, astaxanthin (SIGMA, Cat. No. A9335) was used. The astaxanthin concentration of the reference solution was determined using the following equation after measuring the absorbance (A) of the reference solution at 477 nm and the area percentage % (B) of the astaxanthin peak at the time of HPLC analysis under the above conditions. Astaxanthin concentration (mg/L)=A/2150×B×100
A medium of the following composition (glucose 20 g/L, dry yeast 5 g/L, potassium dihydrogenphosphate 1.5 g/L, disodium hydrogenphosphate 12-hydrate 3.8 g/L, calcium chloride dihydrate 0.1 g/L, magnesium sulfate 7-hydrate 0.7 g/L, iron sulfate 7-hydrate 3 g/L, pH 7.2) was dispensed in 8 ml volumes into cotton-plugged test tubes having an inner diameter of 18 mm and sterilized in an autoclave at 121° C. for 15 minutes to prepare a test tube medium for seed culture.
Next, a medium of the following composition (glucose 40 g/L, ammonium sulfate 1.5 g/L, potassium dihydrogenphosphate 0.54 g/L, dipotassium hydrogenphosphate 2,78 g/L, calcium chloride dihydrate 1 g/L, sodium chloride 3 g/L, magnesium sulfate 7-hydrate 0.7 g/L, iron sulfate 7-hydrate 5 g/L, zinc sulfate 7-hydrate 2 mg/L, cobalt chloride 6-hydrate 2 mg/L, copper sulfate 5-hydrate 1 mg/L, manganese sulfate 5-hydrate 4 mg/L, sodium molybdate dihydrate 2 mg/L, nickel sulfate 6-hydrate 1 mg/L, sodium selenate 0.5 mg/L, boric acid 5 mg/L, potassium iodide 1 mg/L, cyanocobalamin 1 mg/L, riboflavin 10 mg/L, calcium pantothenate 15 mg/L, pyridoxine hydrochloride salt 20 mg/L, thiamine hydrochloride salt […], ascorbic acid 30 mg/L, folic acid 1 mg/L, niacin 15 mg/L, p-aminobenzoic acid 10 mg/L, biotin 0.1 mg/L, myo-inositol 50 mg/L, choline 10 mg/L, polyether-based defoaming agent 0.2 g/L) was dispensed in 8 ml volumes into cotton-plugged test tubes having an inner diameter of 18 mm (4 tubes in total).
For use in this medium, glucose, inorganic salts, trace metals and vitamins were prepared separately. Glucose, inorganic salts and trace metals were sterilized by heating at 121° C. for 15 minutes, while vitamins were sterilized by filtration. Then, these 4 solutions were mixed together.
Further, one of the test tubes was supplemented with a heat-sterilized aqueous solution of monosodium L-glutamate monohydrate to 6 g/L (32 mmol/L), another tube was supplemented with a heat-sterilized aqueous yeast extract to 6 g/L, another tube was supplemented with the same yeast extract to 12 g/L, and the other tube was supplemented with nothing. Finally, the mediums in the tubes were aseptically supplemented with 12% aqueous ammonia to give pH 7.2.
The mutant Paracoccus sp. strain Y-1071 selected in Example 3 was inoculated into the test tube medium for seed culture and then cultured with shaking at 30° C. for 2 days at 300 spm. The resulting culture solution was then inoculated in 0.1 ml volumes into the 4 test tube media and cultured with shaking at 3(1° C. for 3 days at 300 spm.
Each culture solution was measured for its carotenoid concentration by HPLC.

[2] = tested on: Paracoccus sp. strain L-25; assay: Glutamate supplementation, test tube culture, lycopene-producing mutant, carotenoid by HPLC; format: cell-based
Method: as §1, §2
The strain E-396 (FERM BP-4283) was mutated with N-methyl-N′-nitro-N-nitrosoguanidine to select mutant strain colonies with red-purple color. Carotenoid compounds in their culture solutions were further analyzed by high performance liquid chromatography to select a strain L-25 specifically producing lycopene.
A medium of the following composition (sucrose 30 g/L, corn steep liquor 30 g/L, potassium dihydrogenphosphate 1.5 g/L, disodium hydrogenphosphate 12-hydrate 3.8 g/L, calcium chloride dihydrate 5.0 g/L, magnesium sulfate -hydrate 0.7 g/L, iron sulfate 7-hydrate 0.3 g/L, pH 7.2) was dispensed in 8 ml volumes into cotton-plugged test tubes having an inner diameter of 18 mm and sterilized in an autoclave at 121° C. for 15 minutes to prepare a test tube medium for seed culture.
Next, a medium of the following composition (glucose 30 g/L, filtered corn steep liquor 5 g/L, ammonium sulfate 1.5 g/L, potassium dihydrogenphosphate 1.5 g/L, disodium hydrogenphosphate 12-hydrate 3.8 g/L, calcium chloride dihydrate 5.0 g/L, magnesium sulfate 7-hydrate 0.7 g/L, iron sulfate 7-hydrate 0.6 g/L, ester-based defoaming agent 0.2 g/L) was dispensed in 8 ml volumes into cotton-plugged test tubes having an inner diameter of 18 mm (2 tubes in total). One of the test tubes was supplemented with monosodium L-glutamate monohydrate to 30 mmol/L, while the other was supplemented with nothing as a control. Finally, the mediums in the tubes were adjusted to pH 7.1 with aqueous ammonia and then sterilized in an autoclave at 121° C. for 20 minutes.
The Paracoccus sp. strain L-25 selected above was inoculated, into the test tube medium for seed culture and then cultured with shaking at 28° C. for 2 days at 300 spin. The resulting culture solution was then inoculated in 0.1 ml volumes into the two test tube mediums and cultured with shaking at 28° C. for 3 days at 300 spm. Each culture solution was measured for its carotenoid concentration by HPLC.

[3] = Glutamic acid concentration 30 mmol/L, 28° C. for 3 days

SMILES: N[C@@H](CCC(=O)O)C(=O)O [Glutamic acid, glutamic acid]
- produced carotenoid concentration compared to the sample without glutamic acid ([1]; glutamic acid 6 g/L (32 mmol/L), yeast extract 6 g/L and 12 g/L): higher produced carotenoid concentration
- Produced carotenoid concentration, 3-Hydroxyechinenone ([1]; supplement 6 g/L, 3 days): 0.2 mg/L
- Produced carotenoid concentration, Adonixanthin ([1]; supplement 6 g/L, 3 days): 3.3 mg/L
- Produced carotenoid concentration, Astaxanthin ([1]; supplement 6 g/L, 3 days): 13.7 mg/L
- Produced carotenoid concentration, Asteroidenone ([1]; supplement 6 g/L, 3 days): 0.2 mg/L
- Produced carotenoid concentration, Canthaxanthin ([1]; supplement 6 g/L, 3 days): 1.8 mg/L
- Produced carotenoid concentration, Echinenone ([1]; supplement 6 g/L, 3 days): 0.9 mg/L
- Produced carotenoid concentration, Phoenicoxanthin ([1]; supplement 6 g/L, 3 days): 4.1 mg/L
- Produced carotenoid concentration, Total Carotenoid ([1]; supplement 6 g/L, 3 days): 26.3 mg/L
- Produced carotenoid concentration, Zeaxanthin ([1]; supplement 6 g/L, 3 days): 0.06 mg/L
- Produced carotenoid concentration, β-Carotene ([1]; supplement 6 g/L, 3 days): 2.0 mg/L
- Produced carotenoid concentration, β-Cryptoxanthin ([1]; supplement 6 g/L, 3 days): 0.02 mg/L
- produced carotenoid concentration compared to the sample without glutamic acid ([2]; 30 mmol/L): higher produced carotenoid concentration
- Adonixanthin [2, 3]: 0.3 mg/L
- Astaxanthin [2, 3]: 0.3 mg/L
- Lycopene [2, 3]: 19.6 mg/L
- Total carotenoid [2, 3]: 20.2 mg/L

From patent US8993282B2, “Carotenoid fermentation method” (JX Nippon Oil & Energy Corporation, priority 2008, dated 2015)
